Results reported in PubChem BioAssay (NCI).
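Method: 48-hour compound exposure of cells in 96-well plates, five concentrations, linear interpolation of endpoints. GI50 = concentration required for 50% inhibition of growth. The concentration for full growth arrest is given as TGI.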

Experiments:
Assay in all cases: NCI-60 cell line screen, 48 h
UO-31 renal = test system: UO-31 renal
SK-MEL-2 melanoma = test system: SK-MEL-2 melanoma
NCI-H23 lung = test system: NCI-H23 lung
MDA-MB-231 breast = test system: MDA-MB-231 breast
786-0 renal = test system: 786-0 renal
MDA-MB-435 = test system: MDA-MB-435
ACHN renal = test system: ACHN renal
T-47D breast = test system: T-47D breast
CCRF-CEM leukemia = test system: CCRF-CEM leukemia
SNB-75 CNS = test system: SNB-75 CNS
OVCAR-5 ovarian = test system: OVCAR-5 ovarian
KM12 colon = test system: KM12 colon
DU-145 prostate = test system: DU-145 prostate
SN12C renal = test system: SN12C renal
NCI-H522 lung = test system: NCI-H522 lung
MCF7 breast = test system: MCF7 breast
SR leukemia = test system: SR leukemia
A549 NSCLC = test system: A549 NSCLC
IGROV1 ovarian = test system: IGROV1 ovarian
HOP-92 NSCLC = test system: HOP-92 NSCLC
K-562 leukemia = test system: K-562 leukemia
OVCAR-8 ovarian = test system: OVCAR-8 ovarian
A498 renal = test system: A498 renal
LOX IMVI melanoma = test system: LOX IMVI melanoma
OVCAR-4 ovarian = test system: OVCAR-4 ovarian
SK-OV-3 ovarian = test system: SK-OV-3 ovarian
SNB-19 CNS = test system: SNB-19 CNS
M14 melanoma = test system: M14 melanoma
OVCAR-3 ovarian = test system: OVCAR-3 ovarian
EKVX NSCLC = test system: EKVX NSCLC
TK-10 renal = test system: TK-10 renal
COLO 205 colon = test system: COLO 205 colon
HS 578T breast = test system: HS 578T breast
SK-MEL-5 melanoma = test system: SK-MEL-5 melanoma
HCT-15 colon = test system: HCT-15 colon
SF-295 CNS = test system: SF-295 CNS
PC-3 prostate = test system: PC-3 prostate
HCC-2998 colon = test system: HCC-2998 colon
MOLT-4 leukemia = test system: MOLT-4 leukemia
BT-549 breast = test system: BT-549 breast
SF-268 CNS = test system: SF-268 CNS
UACC-257 melanoma = test system: UACC-257 melanoma
NCI-H226 lung = test system: NCI-H226 lung
SW-620 colon = test system: SW-620 colon
NCI-H460 lung = test system: NCI-H460 lung
HCT-116 colon = test system: HCT-116 colon
NCI/ADR-RES ovarian = test system: NCI/ADR-RES ovarian
RXF 393 renal = test system: RXF 393 renal
U251 CNS = test system: U251 CNS
UACC-62 melanoma = test system: UACC-62 melanoma
HT29 colon = test system: HT29 colon
RPMI-8226 leukemia = test system: RPMI-8226 leukemia
MALME-3M melanoma = test system: MALME-3M melanoma
CAKI-1 renal = test system: CAKI-1 renal
HL-60(TB) leukemia = test system: HL-60(TB) leukemia
SK-MEL-28 melanoma = test system: SK-MEL-28 melanoma
HOP-62 NSCLC = test system: HOP-62 NSCLC

O=C1N(Cc2ccccc2Cl)c2ccccc2C12NN=C(c1cccc(Cl)c1)S2 (centres undefined)
GI50 (UO-31 renal): 1690 nM
TGI (UO-31 renal): 3260 nM
GI50 (SK-MEL-2 melanoma): 1770 nM
TGI (SK-MEL-2 melanoma): 3380 nM
GI50 (NCI-H23 lung): 1630 nM
TGI (NCI-H23 lung): 3670 nM
GI50 (MDA-MB-231 breast): 2020 nM
TGI (MDA-MB-231 breast): 4200 nM
GI50 (786-0 renal): 1720 nM
TGI (786-0 renal): 3120 nM
GI50 (MDA-MB-435): 1750 nM
TGI (MDA-MB-435): 3280 nM
GI50 (ACHN renal): 1810 nM
TGI (ACHN renal): 3430 nM
GI50 (T-47D breast): 1620 nM
TGI (T-47D breast): 3100 nM
GI50 (CCRF-CEM leukemia): 1860 nM
TGI (CCRF-CEM leukemia): 4930 nM
GI50 (SNB-75 CNS): 1470 nM
TGI (SNB-75 CNS): 2840 nM
GI50 (OVCAR-5 ovarian): 1880 nM
TGI (OVCAR-5 ovarian): 3760 nM
GI50 (KM12 colon): 1820 nM
TGI (KM12 colon): 3790 nM
GI50 (DU-145 prostate): 1700 nM
TGI (DU-145 prostate): 3260 nM
GI50 (SN12C renal): 1910 nM
TGI (SN12C renal): 3920 nM
GI50 (NCI-H522 lung): 1720 nM
TGI (NCI-H522 lung): 3480 nM
GI50 (MCF7 breast): 1750 nM
TGI (MCF7 breast): 3370 nM
GI50 (SR leukemia): 2140 nM
TGI (SR leukemia): 5670 nM
GI50 (A549 NSCLC): 1860 nM
TGI (A549 NSCLC): 3410 nM
GI50 (IGROV1 ovarian): 1780 nM
TGI (IGROV1 ovarian): 3750 nM
GI50 (HOP-92 NSCLC): 1740 nM
TGI (HOP-92 NSCLC): 3170 nM
GI50 (K-562 leukemia): 2210 nM
TGI (K-562 leukemia): 5390 nM
GI50 (OVCAR-8 ovarian): 1960 nM
TGI (OVCAR-8 ovarian): 4410 nM
GI50 (A498 renal): 1540 nM
TGI (A498 renal): 2950 nM
GI50 (LOX IMVI melanoma): 1490 nM
TGI (LOX IMVI melanoma): 2920 nM
GI50 (OVCAR-4 ovarian): 1950 nM
TGI (OVCAR-4 ovarian): 4050 nM
GI50 (SK-OV-3 ovarian): 1690 nM
TGI (SK-OV-3 ovarian): 3050 nM
GI50 (SNB-19 CNS): 1750 nM
TGI (SNB-19 CNS): 3320 nM
GI50 (M14 melanoma): 1700 nM
TGI (M14 melanoma): 3250 nM
GI50 (OVCAR-3 ovarian): 1830 nM
TGI (OVCAR-3 ovarian): 3430 nM
GI50 (EKVX NSCLC): 1690 nM
TGI (EKVX NSCLC): 3080 nM
GI50 (TK-10 renal): 1770 nM
TGI (TK-10 renal): 3150 nM
GI50 (COLO 205 colon): 1770 nM
TGI (COLO 205 colon): 3300 nM
GI50 (HS 578T breast): 2400 nM
TGI (HS 578T breast): 5850 nM
GI50 (SK-MEL-5 melanoma): 1710 nM
TGI (SK-MEL-5 melanoma): 3110 nM
GI50 (HCT-15 colon): 1900 nM
TGI (HCT-15 colon): 4190 nM
GI50 (SF-295 CNS): 1710 nM
TGI (SF-295 CNS): 3170 nM
GI50 (PC-3 prostate): 1740 nM
TGI (PC-3 prostate): 3450 nM
GI50 (HCC-2998 colon): 1780 nM
TGI (HCC-2998 colon): 3240 nM
GI50 (MOLT-4 leukemia): 2040 nM
TGI (MOLT-4 leukemia): 4640 nM
GI50 (BT-549 breast): 1830 nM
TGI (BT-549 breast): 3440 nM
GI50 (SF-268 CNS): 1590 nM
TGI (SF-268 CNS): 3260 nM
GI50 (UACC-257 melanoma): 1700 nM
TGI (UACC-257 melanoma): 3270 nM
GI50 (NCI-H226 lung): 1490 nM
TGI (NCI-H226 lung): 2860 nM
GI50 (SW-620 colon): 2020 nM
TGI (SW-620 colon): 4330 nM
GI50 (NCI-H460 lung): 1420 nM
TGI (NCI-H460 lung): 3320 nM
GI50 (HCT-116 colon): 1620 nM
TGI (HCT-116 colon): 2980 nM
GI50 (NCI/ADR-RES ovarian): 1780 nM
TGI (NCI/ADR-RES ovarian): 4140 nM
GI50 (RXF 393 renal): 1760 nM
TGI (RXF 393 renal): 3400 nM
GI50 (U251 CNS): 1770 nM
TGI (U251 CNS): 3150 nM
GI50 (UACC-62 melanoma): 1760 nM
TGI (UACC-62 melanoma): 3520 nM
GI50 (HT29 colon): 2020 nM
TGI (HT29 colon): 4300 nM
GI50 (RPMI-8226 leukemia): 2360 nM
TGI (RPMI-8226 leukemia): 6040 nM
GI50 (MALME-3M melanoma): 1540 nM
TGI (MALME-3M melanoma): 3240 nM
GI50 (CAKI-1 renal): 1690 nM
TGI (CAKI-1 renal): 3070 nM
GI50 (HL-60(TB) leukemia): 2490 nM
TGI (HL-60(TB) leukemia): 6320 nM
GI50 (SK-MEL-28 melanoma): 1860 nM
TGI (SK-MEL-28 melanoma): 3570 nM
GI50 (HOP-62 NSCLC): 1550 nM
TGI (HOP-62 NSCLC): 2890 nM
